Measurements taken from patent US6974870B2, “Substituted 3-amino-thieno [2,3-b]pyridine-2-carboxylic acid amide compounds and processes for preparing and their uses” (Boehringer Ingelheim Phamaceuticals, Inc., priority 2002, dated 2005).

Tests used:
human IKKβ = molecular target: T1, human IKKβ (Homo sapiens, UniProt O14920); experiment: IKKβ kinase inhibition assay (phosphorylation of IκBα substrate, 33P-ATP); format: biochemical; details: flag-tagged human IKKβ 0.9 μg/ml, GST-IκBα (1-54) 53 μg/ml, 250 nM ATP, 1 hour at 25° C.
T1 construct: FLAG (N)
T1 sequence (O14920 1-756): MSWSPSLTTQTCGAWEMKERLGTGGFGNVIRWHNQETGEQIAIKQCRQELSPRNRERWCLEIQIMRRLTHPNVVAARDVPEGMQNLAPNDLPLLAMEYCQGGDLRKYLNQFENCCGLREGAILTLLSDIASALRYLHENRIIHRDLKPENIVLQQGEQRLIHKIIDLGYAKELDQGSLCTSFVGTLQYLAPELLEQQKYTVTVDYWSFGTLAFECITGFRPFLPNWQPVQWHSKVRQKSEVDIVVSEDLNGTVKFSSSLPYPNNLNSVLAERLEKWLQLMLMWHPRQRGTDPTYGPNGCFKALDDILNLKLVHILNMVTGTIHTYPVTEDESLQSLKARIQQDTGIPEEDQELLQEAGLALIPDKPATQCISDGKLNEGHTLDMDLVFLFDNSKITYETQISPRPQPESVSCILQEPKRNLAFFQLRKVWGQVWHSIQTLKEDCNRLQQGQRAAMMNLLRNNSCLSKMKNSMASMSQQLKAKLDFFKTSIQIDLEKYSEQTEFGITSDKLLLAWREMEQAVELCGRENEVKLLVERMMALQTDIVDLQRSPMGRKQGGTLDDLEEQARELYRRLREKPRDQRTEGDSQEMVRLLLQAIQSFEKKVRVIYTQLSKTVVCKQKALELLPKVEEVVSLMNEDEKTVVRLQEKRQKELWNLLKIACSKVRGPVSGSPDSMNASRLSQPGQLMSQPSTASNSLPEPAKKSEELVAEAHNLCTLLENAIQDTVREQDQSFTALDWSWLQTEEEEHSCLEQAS
Protocol: (§1) The inhibition of IKKα and IKKβ by the compounds of the present invention was determined with the following assay that measures the phosphorylation of the IκBα substrate by the respective kinases. The enzymes used in the assay were N-terminally flag-tagged versions of the human IKKβ or IKKα and the substrate was a GST fusion protein with IκBα (amino acids 1-54).
(§2) The reaction mixtures (60 μl) contained 20 mM HEPES pH 7.5, 10 mM MgCl2, 2 mM MnCl2, 100 mM NaCl, 100 μM Na3VO4, 20 mM β-glycerophosphate, 1 mM DTT, 2% DMSO, 250 nM ATP, 0.4 nM [^33P]ATP (specific activity, 3000 Ci/mmol), IκBα substrate, IKK enzyme and test compound. The reaction mixtures contained either 3.6 μg/ml IKKα and 245 μg/ml IκBα or 0.9 μg/ml IKKβ and 53 μg/ml IκBα.
(§3) Reactions were initiated by adding a solution of IκBα substrate and ATP to polypropylene plates containing IKK enzyme that was pre-incubated for 5 minutes with test compound. Then the reaction mixtures were incubated for 1 hour at 25° C., placed on ice and quenched by the addition of 150 μl 10% trichloroacetic acid and 5% disodium pyrophosphate. After mixing, the entire contents of the quenched reaction mixtures were transferred to a pre-wetted Packard UniFilter filtration plate, aspirated and washed 6 times with 250 μl of ddH2O using the Packard Filtermate Harvester. Filtration plates were then air dried, supplemented with 40 μl of Microscint 20 scintillation fluid and the ^33P-labeled reaction products were quantified using the Packard TopCount scintillation counter.
(§4) Compounds were tested in three-fold serial dilutions and inhibitor concentrations to achieve 50% inhibition of enzyme activity (i.e., IC50) were derived from dose-reponse curves using SAS software (SAS Institute, Cary N.C.). A non-linear regression analysis based on the Hill equation was applied to the percent inhibition versus concentration data. In all cases, compound concentrations were verified by HPLC.

human IKKα = molecular target: T2, human IKKα (Homo sapiens, UniProt O15111); experiment: IKKα kinase inhibition assay (phosphorylation of IκBα substrate, 33P-ATP); format: biochemical; details: flag-tagged human IKKα 3.6 μg/ml, GST-IκBα (1-54) 245 μg/ml, 250 nM ATP, 1 hour at 25° C.
T2 construct: FLAG (N)
T2 sequence (O15111 1-745): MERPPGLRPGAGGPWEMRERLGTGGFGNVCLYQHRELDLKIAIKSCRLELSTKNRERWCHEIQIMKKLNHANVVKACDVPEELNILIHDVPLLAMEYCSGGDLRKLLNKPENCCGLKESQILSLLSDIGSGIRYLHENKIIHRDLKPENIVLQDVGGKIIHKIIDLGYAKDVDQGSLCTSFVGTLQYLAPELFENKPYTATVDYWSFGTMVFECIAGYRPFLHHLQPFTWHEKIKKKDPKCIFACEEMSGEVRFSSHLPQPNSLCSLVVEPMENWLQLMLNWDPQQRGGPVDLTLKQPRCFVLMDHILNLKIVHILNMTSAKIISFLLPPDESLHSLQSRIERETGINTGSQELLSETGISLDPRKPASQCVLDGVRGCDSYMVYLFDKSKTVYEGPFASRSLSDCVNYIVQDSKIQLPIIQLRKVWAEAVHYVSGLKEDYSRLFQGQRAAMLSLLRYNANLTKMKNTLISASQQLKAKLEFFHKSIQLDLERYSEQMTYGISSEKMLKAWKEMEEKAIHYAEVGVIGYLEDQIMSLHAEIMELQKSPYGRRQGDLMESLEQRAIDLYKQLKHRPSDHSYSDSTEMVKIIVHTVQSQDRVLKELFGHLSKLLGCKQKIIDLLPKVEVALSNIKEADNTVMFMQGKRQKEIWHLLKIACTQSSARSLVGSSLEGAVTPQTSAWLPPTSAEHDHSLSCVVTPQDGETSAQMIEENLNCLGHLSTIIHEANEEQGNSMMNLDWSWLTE
Protocol: as §1, §2, §3, §4

SMILES | IC50 (human IKKβ) | IC50 (human IKKα)
CNC(=O)c1cc(N2CCC(N)CC2)nc2sc(C(N)=O)c(N)c12 [3-Amino-6-(4-amino-piperidin-1-yl)-thieno[2,3-b]pyridine-2,4-dicarboxylic acid 2-amide 4-methylamide] | < 1000 nM | ≤ 10 µM
CCc1cc(N2CCC(N)CC2)nc2sc(C(N)=O)c(N)c12 [3-Amino-6-(4-amino-piperidin-1-yl)-4-ethyl-thieno[2,3-b] pyridine-2-carboxylic acid amide] | < 1000 nM | ≤ 10 µM
NC(=O)c1sc2nc(N3CCC(N)CC3)cc(C(=O)Nc3ccccc3)c2c1N [3-Amino-6-(4-amino-piperidin-1-yl)-thieno[2,3-b]pyridine-2,4-dicarboxylic acid 2-amide 4-phenylamide] | < 1000 nM | ≤ 10 µM
NC(=O)c1sc2nc(N3CCC(N)CC3)cc(C(=O)Nc3ccncc3)c2c1N [3-Amino-6-(4-amino-piperidin-1-yl)-thieno[2,3-b]pyridine-2,4-dicarboxylic acid 2-amide 4-pyridin-4-ylamide] | < 1000 nM | ≤ 10 µM
NC(=O)c1sc2nc(N3CCC(N)CC3)cc(C3CC3)c2c1N [3-Amino-6-(4-amino-piperidin-1-yl)-4-cyclopropyl-thieno[2,3-b] pyridine-2-carboxylic acid amide] | < 1000 nM | ≤ 10 µM
CCCc1cc(N2CCC(NCc3nnn[nH]3)CC2)nc2sc(C(N)=O)c(N)c12 [3-Amino-4-propyl-6-{4-[(1H-tetrazol-5-ylmethyl)-amino]-piperidin-1-yl}-thieno[2,3-b] pyridine-2-carboxylic acid amide] | < 1000 nM | ≤ 10 µM
CSc1cc(N2CCC(N)CC2)nc2sc(C(N)=O)c(N)c12 [3-Amino-6-(4-amino-piperidin-1-yl)-4-methylsulfanyl-thieno[2,3-b]pyridine-2-carboxylic acid amide] | – | ≤ 10 µM
CCCc1cc(N2CCN(C)CC2)nc2sc(C(N)=O)c(N)c12 [3-Amino-6-(4-methyl-piperazin-1-yl)-4-propyl-thieno[2,3-b] pyridine-2-carboxylic acid amide] | – | ≤ 10 µM
CC(C)Oc1ccnc2sc(C(N)=O)c(N)c12 [3-Amino-4-isopropoxy-thieno[2,3-b]pyridine-2-carboxylic acid amide] | – | ≤ 10 µM
NC(=O)c1sc2nc(N3CCC(N)CC3)cc(-c3ccc([N+](=O)[O-])cc3)c2c1N [3-Amino-6-(4-amino-piperidin-1-yl)-4-(4-nitro-phenyl)-thieno[2,3-b]pyridine-2-carboxylic acid amide] | – | ≤ 10 µM

Results, then the molecule that gave them:

IC50 (human IKKβ) | IC50 (human IKKα) | SMILES
< 1000 nM | ≤ 10 µM | CCCc1cc(N2CCC(NCC(=O)N3CCC(O)CC3)CC2)nc2sc(C(N)=O)c(N)c12 [3-Amino-6-{4-[2-(4-hydroxy-piperidin-1-yl)-2-oxo-ethylamino]-piperidin-1-yl}-4-propyl-thieno[2,3-b] pyridine-2-carboxylic acid amide]
< 1000 nM | ≤ 10 µM | CCCc1cc(N2CCC(NCC(O)c3ccc(-c4nccn4C)cc3)CC2)nc2sc(C(N)=O)c(N)c12 (stereo not shown) [3-Amino-6-(4-{2-hydroxy-2-[4-(1-methyl-1H-imidazol-2-yl)-phenyl]-ethylamino}-piperidin-1-yl)-4-propyl-thieno[2,3-b] pyridine-2-carboxylic acid amide]
< 1000 nM | ≤ 10 µM | CNC1CCN(c2cc(SC)c3c(N)c(C(N)=O)sc3n2)CC1 [3-Amino-6-(4-methylamino-piperidin-1-yl)-4-methylsulfanyl-thieno[2,3-b]pyridine-2-carboxylic acid amide]
< 1000 nM | ≤ 10 µM | NC(=O)c1sc2nc(N3CCC(NCC(O)c4ccc(-c5cnccn5)cc4)CC3)cc(C(F)(F)F)c2c1N (stereo not shown) [3-Amino-6-{4-[2-hydroxy-2-(4-pyrazin-2-yl-phenyl)-ethylamino]-piperidin-1-yl}-4-trifluoromethyl-thieno[2,3-b]pyridine-2-carboxylic acid amide]
< 1000 nM | ≤ 10 µM | CCCc1cc(N2CCC(NCC(O)c3ccc(-c4cccnc4)cc3)CC2)nc2sc(C(N)=O)c(N)c12 (stereo not shown) [3-Amino-6-{4-[2-hydroxy-2-(4-pyridin-3-yl-phenyl)-ethylamino]-piperidin-1-yl}-4-propyl-thieno[2,3-b] pyridine-2-carboxylic acid amide]
– | ≤ 10 µM | CCCc1cc(N2CCC(NCC(O)c3ccc(C(=O)NCc4cccc(C(N)=O)c4)cc3)CC2)nc2sc(C(N)=O)c(N)c12 (stereo not shown) [3-Amino-6-(4-{2-[4-(3-carbamoyl-benzylcarbamoyl)-phenyl]-2-hydroxy-ethylamino}-piperidin-1-yl)-4-propyl-thieno[2,3-b] pyridine-2-carboxylic acid amide]
< 1000 nM | ≤ 10 µM | CCCc1cc(N2CCC(NCC(O)c3ccc(-n4ccnc4)cc3)CC2)nc2sc(C(N)=O)c(N)c12 (stereo not shown) [3-Amino-6-{4-[2-hydroxy-2-(4-imidazol-1-yl-phenyl)-ethylamino]-piperidin-1-yl}-4-propyl-thieno[2,3-b] pyridine-2-carboxylic acid amide]
– | ≤ 10 µM | NC(=O)c1sc2nc(N3CCC(NCC(O)c4ccc(C(=O)NCc5ccccc5)cc4)CC3)cc(C(F)(F)F)c2c1N (stereo not shown) [3-Amino-6-{4-[2-(4-benzylcarbamoyl-phenyl)-2-hydroxy-ethylamino]-piperidin-1-yl}-4-trifluoromethyl-thieno[2,3-b]pyridine-2-carboxylic acid amide]
– | ≤ 10 µM | CCCc1cc(N2CCC(NC)CC2)nc2sc(C(N)=O)c(N)c12 [3-Amino-6-(4-methylamino-piperidin-1-yl)-4-propyl-thieno[2,3-b] pyridine-2-carboxylic acid amide]
– | ≤ 10 µM | Cc1cc(-c2ccc([N+](=O)[O-])cc2)c2c(N)c(C(N)=O)sc2n1 [3-Amino-6-methyl-4-(4-nitro-phenyl)-thieno[2,3-b]pyridine-2-carboxylic acid amide]
– | ≤ 10 µM | NC(=O)c1sc2nc(N3CCC(NCC(O)c4ccc(F)c(F)c4)CC3)cc(C(F)(F)F)c2c1N (stereo not shown) [3-Amino-6-{4-[2-(3,4-difluoro-phenyl)-2-hydroxy-ethylamino]-piperidin-1-yl}-4-trifluoromethyl-thieno[2,3-b]pyridine-2-carboxylic acid amide]
– | ≤ 10 µM | CCCc1cc(N2CCNCC2)nc2sc(C(N)=O)c(N)c12 [3-amino-6-piperazin-1-yl-4-propyl-thieno[2,3-b]pyridine-2-carboxylic acid amide]
